Results published in US9169252B2 (BRISTOL-MYERS SQUIBB COMPANY, priority 2014, dated 2015).
Read-outs that look alike come from different tables or passages of the source.

Key:
IRAK4 = IRAK4 (Homo sapiens (Human), UniProt Q9NWZ3); assay: IRAK4 Inhibition Assay; assay type: biochemical; conditions: ATP 500 μM, read-out: IRAK4 IC50
Outline: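 IRAK4 combined with fluorescent substrate and compounds, reacted 60 min at room temperature, stopped with 35 mM EDTA. Substrate and phosphorylated product separated electrophoretically on a Caliper LabChip 3000 mobility-shift reader.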

[1] = system: TLR2 induced IL-6 in peripheral blood mononuclear cells (PBMCs); assay: PBMC TLR2 Induced IL-6 Assay; assay type: cell-based, human; conditions: IL-6 by ELISA; for IC50: read-out: Cell IC50; for EC50: read-out: Cell EC50
Outline: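 Lipoteichoic acid at 10 µg/ml served as TLR2 stimulus for 5 hours, following a 30-minute compound pretreatment at 37° C. Cells were Ficoll-isolated human PBMCs, 250000 cells/well, cultured in RPMI plus 10% heat-inactivated FCS.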

[2] = Homo sapiens, PBMC, human PBMCs, lipoteichoic acid stimulated
[3] = Homo sapiens, PBMC, PBMC TLR2 Induced IL-6 Assay, lipoteichoic acid stimulation
[4] = PBMC TLR2 Induced IL-6 Assay, lipoteichoic acid stimulation

Sequence of IRAK4 (Q9NWZ3 whole entry, species assumed): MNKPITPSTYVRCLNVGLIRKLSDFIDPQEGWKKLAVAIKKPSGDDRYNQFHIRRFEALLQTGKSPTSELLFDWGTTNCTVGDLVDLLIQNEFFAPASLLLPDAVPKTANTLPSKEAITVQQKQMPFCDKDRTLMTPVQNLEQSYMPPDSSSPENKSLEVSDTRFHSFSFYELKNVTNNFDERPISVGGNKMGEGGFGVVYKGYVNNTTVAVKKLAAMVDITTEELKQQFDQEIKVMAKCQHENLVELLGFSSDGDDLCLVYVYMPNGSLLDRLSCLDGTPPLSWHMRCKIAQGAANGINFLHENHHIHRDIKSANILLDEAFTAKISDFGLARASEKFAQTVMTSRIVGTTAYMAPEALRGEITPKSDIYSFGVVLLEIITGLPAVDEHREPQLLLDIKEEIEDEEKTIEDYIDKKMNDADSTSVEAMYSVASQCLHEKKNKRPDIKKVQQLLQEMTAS

CC(C)(O)[C@H]1CC[C@H](NC(=O)c2cnc(-n3ncc4cc(C#N)cnc43)cc2NC2COC2)CC1 [Example 555]
IC50 (IRAK4; IRAK4 0.6 nM): 0.007 µM
IC50 [1, 2]: 0.047 µM

CC(C)Nc1cc(-n2ncc3cc(C#N)cnc32)ncc1C(=O)NCCC1(O)CCN(C)CC1 [Example 250]
IC50 (IRAK4; IRAK4 Inhibition Assay): 0.0083 µM
EC50 [1, 3]: 0.497 µM

CC(C)Nc1cc(-n2ccc3cc(C#N)cnc32)ncc1C(=O)N[C@H]1CC[C@](F)(c2nccn2C)CC1 [Example 181, 6-(5-cyano-1H-pyrrolo[2,3-b]pyridin-1-yl)-N-((1 s,4s)-4-fluoro-4-(1-methyl-1H-imidazol-2-yl)cyclohexyl)-4-(isopropylamino) nicotinamide]
IC50 (IRAK4; IRAK4 Inhibition Assay): 0.0043 µM
EC50 [1, 3]: 0.152 µM

CC(C)Nc1cc(-n2ccc3cc(C#N)cnc32)ncc1C(=O)N[C@H]1CC[C@H](S(C)(=O)=O)CC1 [Example 102, 6-(5-Cyano-1H-pyrrolo[2,3-b]pyridin-1-yl)-4-(isopropylamino)-N-((trans)-4-(methylsulfonyl)cyclohexyl)nicotinamide]
IC50 (IRAK4; IRAK4 Inhibition Assay): 0.0036 µM
EC50 [1, 3]: 0.047 µM

CC(C)(O)[C@H](F)CNC(=O)c1cnc(-n2ccc3cc(C#N)cnc32)cc1N[C@H]1CCOC1 [Example 441]
IC50 (IRAK4; IRAK4 0.6 nM): 0.003 µM
EC50 [1, 2]: 0.109 µM

CC(C)(O)[C@H](F)CNC(=O)c1cnc(-n2ccc3cc(C#N)cnc32)cc1N[C@@H]1CCC[C@H]1O [Example 30, 6-(5-cyano-1H-pyrrolo[2,3-b]pyridin-1-yl)-N—((R)-2-fluoro-3-hydroxy-3-methylbutyl)-4-(((1R,2R)-2-hydroxycyclopentyl)amino)nicotinamide]
IC50 (IRAK4; IRAK4 Inhibition Assay): 0.0022 µM
EC50 [1, 3]: 0.101 µM
IC50 [1, 3]: 0.184 µM

COC(=O)N1CC[C@@H](Nc2cc(-n3ccc4cc(C#N)cnc43)ncc2C(=O)NC[C@@H](F)C(C)(C)O)C1 [Example 474]
IC50 (IRAK4; IRAK4 0.6 nM): 0.0012 µM
EC50 [1, 2]: 0.077 µM
IC50 [1, 2]: 0.315 µM

CC(C)Nc1cc(-n2ncc3cc(C#N)cnc32)ncc1C(=O)NCCC(C)(C)O [Example 146, 6-(5-cyano-1H-pyrazolo[3,4-b]pyridin-1-yl)-N-(3-hydroxy-3-methylbutyl)-4-(isopropylamino)nicotinamide]
IC50 (IRAK4; IRAK4 Inhibition Assay): 0.0065 µM
EC50 [1, 3]: 0.267 µM

CC(C)(O)[C@H](F)CNC(=O)c1cnc(-n2ccc3cc(C#N)cnc32)cc1NC1CCC(F)C1 (single isomer, unassigned) [Example 110]
IC50 (IRAK4; IRAK4 Inhibition Assay): 0.0013 µM
EC50 [1, 4]: 0.047 µM

CC(C)Nc1cc(-n2ncc3cc(C#N)cnc32)ncc1C(=O)Nc1ccc(O)cn1 [Example 217]
IC50 (IRAK4; IRAK4 Inhibition Assay): 0.0155 µM
EC50 [1, 3]: 0.503 µM

CCCNC(=O)NCc1cnc2c(ccn2-c2cc(NC(C)C)c(C(=O)NC[C@@H](F)C(C)(C)O)cn2)c1 [Example 513]
IC50 (IRAK4; IRAK4 0.6 nM): 0.0059 µM
IC50 [1, 2]: 0.389 µM

CNC(=O)[C@H]1CC[C@H](NC(=O)c2cnc(-n3ccc4cncnc43)cc2NC2CCOCC2)CC1 [Example 82, N-((trans)-4-(methylcarbamoyl)cyclohexyl)-6-(7H-pyrrolo[2,3-d]pyrimidin-7-yl)-4-((tetrahydro-2H-pyran-4-yl)amino)nicotinamide]
IC50 (IRAK4; IRAK4 Inhibition Assay): 0.0044 µM
EC50 [1, 3]: 0.166 µM
IC50 [1, 3]: 0.578 µM

CC(C)(O)[C@H](F)CNC(=O)c1cnc(-n2ncc3cc(C#N)cnc32)cc1N[C@H]1CC[C@H](NC(=O)C2CC2)CC1 [Example 623]
IC50 (IRAK4; IRAK4 0.6 nM): 0.0052 µM
IC50 [1, 2]: 0.484 µM

CCNc1cc(-n2ncc3cc(C#N)c(N)nc32)ncc1C(=O)NC[C@@H](F)C(C)(C)O [Example 577]
IC50 (IRAK4; IRAK4 0.6 nM): 0.0032 µM
IC50 [1, 2]: 0.175 µM

CC(C)(O)[C@H](F)CNC(=O)c1cnc(-n2ncc3cc(C#N)cnc32)cc1NC1CCC(F)(F)C1 (single isomer, unassigned) [Example 615]
IC50 (IRAK4; IRAK4 0.6 nM): 0.0023 µM
IC50 ([1]; human PBMCs, lipoteichoic acid stimulated): 0.19 µM

CNC(=O)C[C@H]1CC[C@H](NC(=O)c2cnc(-n3ncc4cc(C#N)cnc43)cc2NC(C)C)CC1 [Example 218]
IC50 (IRAK4; IRAK4 Inhibition Assay): 0.0195 µM
EC50 [1, 3]: 0.111 µM

CCOC(C)(C)[C@H](F)CNC(=O)c1cnc(-n2ncc3cc(C#N)cnc32)cc1NC(C)C [Example 215]
IC50 (IRAK4; IRAK4 Inhibition Assay): 0.0037 µM
EC50 [1, 3]: 0.144 µM

CC(C)(O)[C@H](F)CNC(=O)c1cnc(-n2ccc3cc(C#N)cnc32)cc1N[C@@H]1CCN(S(C)(=O)=O)C1 [Example 465]
IC50 (IRAK4; IRAK4 0.6 nM): 0.0013 µM
EC50 [1, 2]: 0.007 µM
IC50 [1, 2]: 0.023 µM

CCNc1cc(-n2ccc3cc(Cl)cnc32)ncc1C(=O)NC[C@@H](F)C(C)(C)O [Example 33, (R)-6-(5-chloro-1H-pyrrolo[2,3-b]pyridin-1-yl)-4-(ethylamino)-N-(2-fluoro-3-hydroxy-3-methylbutyl)nicotinamide]
IC50 (IRAK4; IRAK4 Inhibition Assay): 0.0071 µM
EC50 [1, 3]: 0.661 µM
IC50 [1, 3]: 0.403 µM

COc1cnc2c(cnn2-c2cc(NC(C)C)c(C(=O)NC[C@@H](F)C(C)(C)O)cn2)c1 [Example 195]
IC50 (IRAK4; IRAK4 Inhibition Assay): 0.0194 µM
EC50 [1, 3]: 0.34 µM
IC50 [1, 3]: 0.647 µM

CC(C)CCNC(=O)c1cnc(-n2ncc3cc(C#N)c(N)nc32)cc1NC1COC1 [Example 560]
IC50 (IRAK4; IRAK4 0.6 nM): 0.0034 µM
IC50 [1, 2]: 0.254 µM

CC(C)(O)[C@H](F)CNC(=O)c1cnc(-n2ccc3cc(C#N)cnc32)cc1N[C@@H]1CCN(C(=O)CC#N)C1 [Example 477]
IC50 (IRAK4; IRAK4 0.6 nM): 0.0029 µM
EC50 [1, 2]: 0.301 µM
IC50 [1, 2]: 1.3 µM

CC(C)(O)[C@H](F)CNC(=O)c1cnc(-n2ccc3cc(C#N)cnc32)cc1NC1CN(c2ncc(F)cn2)C1 [Example 472]
IC50 (IRAK4; IRAK4 0.6 nM): 0.002 µM
EC50 [1, 2]: 0.07 µM
IC50 [1, 2]: 0.123 µM

CNC(=O)c1cccc(Nc2cc(-n3ccc4cc(C#N)cnc43)ncc2C(=O)NC[C@@H](F)C(C)(C)O)c1 [Example 55, (R)-6-(5-cyano-1H-pyrrolo[2,3-b]pyridin-1-yl)-N-(2-fluoro-3-hydroxy-3-methylbutyl)-4-((3-(methylcarbamoyl)phenyl)amino)nicotinamide]
IC50 (IRAK4; IRAK4 Inhibition Assay): 0.0036 µM
EC50 [1, 3]: 0.513 µM

CC(F)[C@H](C)Nc1cc(-n2ncc3cc(C#N)cnc32)ncc1C(=O)NC[C@@H](F)C(C)(C)O (single isomer, unassigned) [Example 203]
IC50 (IRAK4; IRAK4 Inhibition Assay): 0.0039 µM
EC50 [1, 4]: 0.124 µM

CC(C)Nc1cc(-n2ccc3cc(C#N)cnc32)ncc1C(=O)N[C@H]1CC[C@](F)(c2nccs2)CC1 [Example 180, 6-(5-cyano-1H-pyrrolo[2,3-b]pyridin-1-yl)-N-((1s,4s)-4-fluoro-4-(thiazol-2-yl)cyclohexyl)-4-(isopropylamino)nicotinamide]
IC50 (IRAK4; IRAK4 Inhibition Assay): 0.0053 µM
EC50 [1, 3]: 0.208 µM

CC(C)Nc1cc(-n2ccc3cc(C#N)cnc32)ncc1C(=O)NC[C@@H](F)C(C)(C)O [Example 75, (R)-6-(5-cyano-1H-pyrrolo[2,3-b]pyridin-1-yl)-N-(2-fluoro-3-hydroxy-3-methylbutyl)-4-(isopropylamino)nicotinamide]
IC50 (IRAK4; IRAK4 Inhibition Assay): 0.0076 µM
IC50 [1, 3]: 0.022 µM

COC(=O)N1CC(Nc2cc(-n3ccc4cc(C#N)cnc43)ncc2C(=O)NC[C@@H](F)C(C)(C)O)C1 [Example 481]
IC50 (IRAK4; IRAK4 0.6 nM): 0.0019 µM
EC50 [1, 2]: 0.053 µM
IC50 [1, 2]: 0.595 µM

CC(C)Nc1cc(-n2ncc3cc(C#N)cnc32)ncc1C(=O)Nc1ccc(N2CCOCC2)cn1 [Example 221]
IC50 (IRAK4; IRAK4 Inhibition Assay): 0.0084 µM
EC50 [1, 3]: 0.23 µM

CC(C)Nc1cc(-n2ccc3cncnc32)ncc1C(=O)NC[C@@H](F)C(C)(C)O [Example 39, (R)—N-(2-fluoro-3-hydroxy-3-methylbutyl)-4-(isopropylamino)-6-(7H-pyrrolo[2,3-d]pyrimidin-7-yl)nicotinamide]
IC50 (IRAK4; IRAK4 Inhibition Assay): 0.0011 µM
EC50 [1, 3]: 0.151 µM
IC50 [1, 3]: 0.151 µM

CC[C@@H](F)CNc1cc(-n2ncc3cc(Cl)cnc32)ncc1C(=O)NC[C@@H](F)C(C)(C)O [Example 602]
IC50 (IRAK4; IRAK4 0.6 nM): 0.0093 µM
IC50 [1, 2]: 0.233 µM

CC(C)Nc1cc(-n2ncc3cc(C#N)cnc32)ncc1C(=O)NCCC1CC1 [Example 302]
IC50 (IRAK4; IRAK4 Inhibition Assay): 0.0041 µM
IC50 [1, 3]: 0.148 µM

CC(C)Nc1cc(-n2ncc3cc(C#N)cnc32)ncc1C(=O)NCCC1(O)CCC(C)(O)CC1 (centres unmarked) [Example 277]
IC50 (IRAK4; IRAK4 Inhibition Assay): 0.0059 µM
IC50 [1, 3]: 0.251 µM

CC(C)Nc1cc(-n2ncc3cc(C#N)c(N)nc32)ncc1C(=O)NC[C@@H](F)C(C)(C)O [Example 262]
IC50 (IRAK4; IRAK4 Inhibition Assay): 0.0013 µM
IC50 [1, 3]: 0.048 µM

CC(C)(F)Cn1cc(Nc2cc(-n3ncc4cc(C#N)cnc43)ncc2C(=O)NC[C@@H](F)C(C)(C)O)cn1 [Example 356]
IC50 (IRAK4; IRAK4 Inhibition Assay): 0.0024 µM
IC50 [1, 3]: 0.154 µM

CCCCNC(=O)c1cnc(-n2ncc3cc(C#N)cnc32)cc1NC(C)C [Example 199]
IC50 (IRAK4; IRAK4 Inhibition Assay): 0.0063 µM
EC50 [1, 3]: 0.281 µM

CC[C@@H](C)Nc1cc(-n2ncc3cc(C#N)cnc32)ncc1C(=O)NC[C@@H](F)C(C)(C)O [Example 283]
IC50 (IRAK4; IRAK4 Inhibition Assay): 0.0028 µM
IC50 [1, 3]: 0.135 µM

CC(C)Nc1cc(-n2ncc3cc(C#N)cnc32)ncc1C(=O)NC1CCN(C(=O)C(C)C)CC1 [Example 273]
IC50 (IRAK4; IRAK4 Inhibition Assay): 0.0186 µM
IC50 [1, 3]: 0.094 µM
